Source: the NIST ThermoML archive (doi:10.1016/j.fluid.2005.05.029)
± gives the expanded uncertainty stated by the source.

Experiment: excess molar enthalpy (molar enthalpy of mixing); xn = mol fraction of the nth substance listed
Details: Liquid, Flow calorimetry

CCOC(=O)OCC [diethyl carbonate] + O=C=O
excess molar enthalpy [kcal/mol]
Details | 298.15 K | 303.15 K | 308.15 K
5000 kPa, x2 = 0.1103 | – | -0.299 ± 0.00645 | -0.335 ± 0.00717
5000 kPa, x2 = 0.2074 | -0.57 ± 0.0122 | -0.577 ± 0.0122 | -0.627 ± 0.0134
5000 kPa, x2 = 0.2936 | -0.816 ± 0.0174 | -0.815 ± 0.0174 | -0.833 ± 0.0177
5000 kPa, x2 = 0.3706 | -1.03 ± 0.0217 | -1.06 ± 0.0225 | -1.06 ± 0.0225
5000 kPa, x2 = 0.4398 | -1.22 ± 0.0263 | -1.24 ± 0.0263 | -1.24 ± 0.0263
5000 kPa, x2 = 0.5023 | -1.4 ± 0.0287 | -1.4 ± 0.0287 | -1.41 ± 0.0287
5000 kPa, x2 = 0.5591 | -1.53 ± 0.0335 | -1.55 ± 0.0335 | –
5000 kPa, x2 = 0.6109 | -1.65 ± 0.0359 | -1.67 ± 0.0359 | -1.68 ± 0.0359
5000 kPa, x2 = 0.6583 | -1.78 ± 0.0382 | -1.79 ± 0.0382 | -1.8 ± 0.0382
5000 kPa, x2 = 0.7019 | -1.89 ± 0.0406 | -1.89 ± 0.0406 | -1.9 ± 0.0406
5000 kPa, x2 = 0.7184 | – | – | -1.94 ± 0.0406
5000 kPa, x2 = 0.7264 | – | – | -1.95 ± 0.0406
5000 kPa, x2 = 0.7343 | – | – | -1.85 ± 0.0406
5000 kPa, x2 = 0.7421 | -1.97 ± 0.0406 | -1.98 ± 0.043 | -1.81 ± 0.0382
5000 kPa, x2 = 0.7794 | -2.04 ± 0.043 | -2.03 ± 0.043 | -1.54 ± 0.0335
5000 kPa, x2 = 0.7935 | – | -2.05 ± 0.043 | –
5000 kPa, x2 = 0.8004 | – | -1.98 ± 0.043 | –
5000 kPa, x2 = 0.8139 | -2.1 ± 0.0454 | -1.86 ± 0.0406 | –
5000 kPa, x2 = 0.846 | -2.14 ± 0.0454 | -1.51 ± 0.0335 | -1.07 ± 0.0227
5000 kPa, x2 = 0.8522 | -2.07 ± 0.043 | – | –
5000 kPa, x2 = 0.876 | -1.76 ± 0.0382 | -1.21 ± 0.0263 | –
5000 kPa, x2 = 0.904 | -1.36 ± 0.0287 | -0.922 ± 0.0196 | -0.65 ± 0.0139
5000 kPa, x2 = 0.9303 | -0.998 ± 0.0213 | -0.722 ± 0.0153 | –
5000 kPa, x2 = 0.9549 | -0.638 ± 0.0136 | -0.439 ± 0.00932 | -0.297 ± 0.00645
5000 kPa, x2 = 0.9781 | -0.308 ± 0.00669 | -0.208 ± 0.00454 | –
5000 kPa, x2 = 0.9957 | – | – | -0.00454 ± 0.00382
5500 kPa, x2 = 0.111 | -0.3 ± 0.00645 | -0.304 ± 0.00645 | -0.305 ± 0.00645
5500 kPa, x2 = 0.2086 | -0.571 ± 0.0122 | -0.574 ± 0.0122 | -0.579 ± 0.0124
5500 kPa, x2 = 0.2951 | -0.804 ± 0.0172 | -0.802 ± 0.017 | –
5500 kPa, x2 = 0.3723 | -0.995 ± 0.0213 | -1 ± 0.0213 | -1.02 ± 0.0217
5500 kPa, x2 = 0.4416 | -1.16 ± 0.0239 | -1.17 ± 0.0239 | –
5500 kPa, x2 = 0.5041 | -1.32 ± 0.0287 | -1.32 ± 0.0287 | -1.37 ± 0.0287
5500 kPa, x2 = 0.5609 | -1.44 ± 0.0311 | -1.46 ± 0.0311 | –
5500 kPa, x2 = 0.6126 | – | -1.6 ± 0.0335 | -1.64 ± 0.0359
5500 kPa, x2 = 0.66 | -1.68 ± 0.0359 | -1.71 ± 0.0359 | -1.75 ± 0.0359
5500 kPa, x2 = 0.7035 | -1.75 ± 0.0382 | -1.79 ± 0.0382 | -1.84 ± 0.0382
5500 kPa, x2 = 0.7199 | – | – | -1.87 ± 0.0406
5500 kPa, x2 = 0.7436 | -1.84 ± 0.0382 | -1.86 ± 0.0406 | -1.92 ± 0.0406
5500 kPa, x2 = 0.7587 | – | – | -1.95 ± 0.0406
5500 kPa, x2 = 0.7661 | – | – | -1.95 ± 0.0406
5500 kPa, x2 = 0.7734 | – | – | -1.97 ± 0.0406
5500 kPa, x2 = 0.7806 | -1.91 ± 0.0406 | -1.94 ± 0.0406 | -1.95 ± 0.0406
5500 kPa, x2 = 0.7947 | – | – | -1.82 ± 0.0382
5500 kPa, x2 = 0.815 | -1.96 ± 0.0406 | -2.01 ± 0.043 | -1.64 ± 0.0359
5500 kPa, x2 = 0.8281 | – | -2.03 ± 0.043 | –
5500 kPa, x2 = 0.8345 | – | -2.03 ± 0.043 | –
5500 kPa, x2 = 0.8408 | – | -2.03 ± 0.043 | –
5500 kPa, x2 = 0.847 | -2.01 ± 0.043 | -1.93 ± 0.0406 | -1.36 ± 0.0287
5500 kPa, x2 = 0.8768 | -2.04 ± 0.043 | -1.52 ± 0.0335 | –
5500 kPa, x2 = 0.9047 | -2.07 ± 0.043 | -1.21 ± 0.0263 | -0.841 ± 0.0179
5500 kPa, x2 = 0.91 | -2.07 ± 0.043 | – | –
5500 kPa, x2 = 0.9153 | -2.04 ± 0.043 | – | –
5500 kPa, x2 = 0.9205 | -1.95 ± 0.0406 | – | –
5500 kPa, x2 = 0.9308 | -1.69 ± 0.0359 | -0.875 ± 0.0186 | –
5500 kPa, x2 = 0.9553 | -1.08 ± 0.0229 | -0.564 ± 0.012 | -0.396 ± 0.00837
5500 kPa, x2 = 0.9783 | -0.498 ± 0.0105 | -0.265 ± 0.00574 | –
6000 kPa, x2 = 0.2097 | – | – | -0.562 ± 0.012
6000 kPa, x2 = 0.2965 | – | – | -0.778 ± 0.0165
6000 kPa, x2 = 0.3739 | – | – | -0.994 ± 0.021
6000 kPa, x2 = 0.4433 | – | – | -1.17 ± 0.0239
6000 kPa, x2 = 0.5058 | – | – | -1.32 ± 0.0287
6000 kPa, x2 = 0.5626 | – | – | -1.45 ± 0.0311
6000 kPa, x2 = 0.6142 | – | – | -1.57 ± 0.0335
6000 kPa, x2 = 0.6615 | – | – | -1.66 ± 0.0359
6000 kPa, x2 = 0.7049 | – | – | -1.76 ± 0.0382
6000 kPa, x2 = 0.7448 | – | – | -1.83 ± 0.0382
6000 kPa, x2 = 0.7818 | – | – | -1.9 ± 0.0406
6000 kPa, x2 = 0.7958 | – | – | -1.92 ± 0.0406
6000 kPa, x2 = 0.816 | – | – | -1.94 ± 0.0406
6000 kPa, x2 = 0.829 | – | – | -1.95 ± 0.0406
6000 kPa, x2 = 0.8354 | – | – | -1.91 ± 0.0406
6000 kPa, x2 = 0.8479 | – | – | -1.76 ± 0.0382
6000 kPa, x2 = 0.9052 | – | – | -1.09 ± 0.0232
6000 kPa, x2 = 0.9555 | – | – | -0.501 ± 0.0108
6500 kPa, x2 = 0.1123 | – | – | -0.281 ± 0.00598
6500 kPa, x2 = 0.2108 | – | – | -0.536 ± 0.0115
6500 kPa, x2 = 0.2978 | – | – | -0.751 ± 0.016
6500 kPa, x2 = 0.3753 | – | – | -0.972 ± 0.0208
6500 kPa, x2 = 0.4448 | – | – | -1.1 ± 0.0234
6500 kPa, x2 = 0.5074 | – | – | -1.25 ± 0.0263
6500 kPa, x2 = 0.5641 | – | – | -1.37 ± 0.0287
6500 kPa, x2 = 0.6157 | – | – | -1.47 ± 0.0311
6500 kPa, x2 = 0.6629 | – | – | -1.58 ± 0.0335
6500 kPa, x2 = 0.7062 | – | – | -1.67 ± 0.0359
6500 kPa, x2 = 0.746 | – | – | -1.73 ± 0.0359
6500 kPa, x2 = 0.7828 | – | – | -1.76 ± 0.0382
6500 kPa, x2 = 0.817 | – | – | -1.8 ± 0.0382
6500 kPa, x2 = 0.8487 | – | – | -1.83 ± 0.0382
6500 kPa, x2 = 0.8782 | – | – | -1.82 ± 0.0382
6500 kPa, x2 = 0.895 | – | – | -1.7 ± 0.0359
6500 kPa, x2 = 0.9058 | – | – | -1.56 ± 0.0335
6500 kPa, x2 = 0.9215 | – | – | -1.27 ± 0.0263
6500 kPa, x2 = 0.9316 | – | – | -1.13 ± 0.0239
6500 kPa, x2 = 0.9415 | – | – | -0.986 ± 0.021
6500 kPa, x2 = 0.9558 | – | – | -0.69 ± 0.0148
6500 kPa, x2 = 0.9786 | – | – | -0.329 ± 0.00717
6500 kPa, x2 = 0.9916 | – | – | -0.111 ± 0.00406
